According to patent publication US20240327415A1, “Multicomponent Complexes, Including Salts, Crystalline Forms, and Hydrates and Solvates of ENT1 Inhibitors” (iTeos Belgium SA, priority 2023, published 2024):

Key:
Format in all cases: physicochemical
[1] = Dynamic Vapor Sorption (DVS); details: for post-DVS sample (XRPD / appearance): DVS at 25° C.
Procedure: (§1) METHOD A: In Example 11, approximately 5-15 mg of sample was placed into a mesh vapor sorption balance pan and loaded into either a DVS Intrinsic or DVS Advantage dynamic vapor sorption balance by Surface Measurement Systems. The sample was subjected to a ramping profile from 40-90% relative humidity (RH) at 10% increments, maintaining the sample at each step until a stable weight had been achieved (dm/dt 0.004%, minimum step length 30 minutes, maximum step length 500 minutes) at 25° C. After completion of the sorption cycle, the sample was dried using the same procedure to 0% RH and then a second sorption cycle back to 40% RH was carried out. Two cycles were performed. The weight change during the sorption/desorption cycles were plotted, allowing the hygroscopic nature of the sample to be determined. XRPD analysis was then carried out on the residual solid.
as §1, with “B:” for “A:”, “Examples 2A, 3, 14, and 17,” for “Example 11,”, “10-20” for “5-15”, “determined.” for “determined. XRPD analysis was then carried out on the residual solid.”
as §1, with “Approximately 10-20” for “METHOD A: In Example 11, approximately 5-15”, “RH” for “relative humidity (RH)”, “min,” for “minutes,”, “min)” for “minutes)”, “determined.” for “determined. XRPD analysis was then carried out on the residual solid.”

[2] = seven-day solid stability studies (ambient; 40° C./75% RH; 80° C.), XRPD and HPLC
Procedure: In the experiment, one set of vials was exposed to ambient light, temperature and humidity conditions. Another was exposed openly to 40° C. and 75% RH conditions and a third was sealed and exposed to 80° C. conditions. After 7 days, XRPD and HPLC measurements were collected.
Example 12-Stability Studies of Amorphous Compound 1 (free base) and Crystalline Form 1 Compound 1 (free base): Seven-day stability studies were carried out comparing amorphous Compound 1 (free base) and crystalline Form 1 Compound 1 (free base) at 40° C./75% RH, under ambient conditions and at 80° C. After storage at 40° C./75% RH and 80° C., the amorphous material formed glassy solids which were pale yellow (40° C./75% RH) or orange (80° C.). It is likely that the material melted and re-solidified at 80° C. and deliquesced at 40° C./75% RH. […] (decrease in purity of ca. 11% area).
Example 15-Stabilities Studies-Crystalline Form 3 Compound 1 di(hydrogen sulfate) and Crystalline Form 4 Compound 1 mono(hydrogen sulfate): Seven-day stability studies were carried out on the prepared crystalline Form 3 Compound 1 di(hydrogen sulfate) and crystalline Form 4 Compound 1 mono(hydrogen sulfate) using the following conditions: (1) Ambient light, temperature and humidity conditions (open vial); (2) 40° C./75% RH (open vial); and (3) 80° C. (closed vial). After 7 days of storage under the specified conditions, XRPD and HPLC analyses were carried out on the residual solid materials, and the results are summarized in Table 51.
Example 18-Seven Day Stability Study on Crystalline Form 2 Compound 1 di(hydrogen sulfate) trihydrate: A 7-day stability study was conducted on crystalline Form 2 Compound 1 di(hydrogen sulfate) trihydrate using the following conditions: (1) ambient light, temperature, and humidity conditions (open vial); (2) 40° C., 75% RH (open vial); and (3) 80° C. (closed vial). After 7 days of storage under the specified, XRPD and HPLC analyses were carried out on the residual solid materials.

[3] = Variable Temperature X-Ray Powder Diffraction (VT-XRPD)
Procedure: (§2) In the examples below, VT-XRPD analysis was carried out on a Philips X'Pert Pro Multipurpose diffractometer equipped with a temperature chamber. The samples were scanned between 4 and 36° 2θ using Cu K radiation (α1 λ=1.54060 Å; α2=1.54443 Å; β=1.39225 Å; α1: α2 ratio=0.5; most, if not all, B radiation is removed from the beam using an X-ray mirror) running in Bragg-Brentano geometry (step size 0.008° 2θ) using 40 kV/40 mA generator settings. Measurements were carried out from ambient temperature to an upper limit of 250° C., with a final measurement taken after cooling.
as §2, with “VT-XRPD” for “In the examples below, VT-XRPD”, “Å; β2=1.39225” for “Å; β=1.39225”, “Å; α1:α2” for “Å; α1: α2”, “all, β” for “all, B”

[4] = XRPD characterization (summary Table 59); details: crystallinity
[5] = 7 days, 40° C./75% RH (open vial)

## CCCN1CCNCCCNC(=O)c2cc(OC)c(OC)c(c2)OCCC[C@@H](OC(=O)c2cc(OC)c(OC)c(OC)c2)CC1
[1]
  DVS: Dehydrates: Dehydrates <15% RH
[1]; at 80% RH
  DVS uptake: 8.0% uptake at
[1]; between 0-10% RH, 25° C.
  moisture uptake (DVS): about 6.3%
[1]; between 10-80% RH, 25° C.
  moisture uptake (DVS): 1.7%
[2]
  7-day Stability studies: Purity compared to input: Purity similar
[2]; [5]
  HPLC: 99.86 % area
  XRPD: 2
[2]; 7 days, 80° C. (closed vial)
  HPLC: 99.85 % area
  XRPD: 2
[2]; 7 days, Ambient (open vial)
  HPLC: 99.86 % area
  XRPD: 2
[2]; Input sample
  HPLC: 99.92 % area
  XRPD: 2
[2]; all conditions
  7-day Stability studies: solid form: No change
[3]
  VT-XRPD: Conv. To Form 5 at: at 80-130 °C
  VT-XRPD: Melt from: Melt from 150 °C
  VT-XRPD: input form retained at: at 30-50 °C
[4]
  XRPD: Crystalline

## COc1cc(C(=O)O[C@@H]2CCCOc3cc(cc(OC)c3OC)C(=O)NCCCN3CCCN(CC2)CC3)cc(OC)c1OC.O=S(=O)(O)O
[1]
  post-DVS sample (XRPD / appearance): conversion to crystalline Form 8 Compound 1 mono(hydrogen sulfate)
[1]; after DVS at 40% RH
  DVS: Conversion to (solid form): Form 8 after
[1]; at 20-30% RH (desorption)
  DVS loss: 8.0% loss at
[1]; at 40-50% RH (2nd sorption)
  DVS uptake: 8.1% uptake at
[1]; between 20-30% RH
  moisture loss (DVS): ca. 8.0%
[1]; between 40-40% RH during the sorption cycles
  moisture uptake (DVS): ca. 4.9%
[1]; between 40-50% RH
  moisture uptake (DVS): 8.1%
[1]; between 50-80% RH
  moisture uptake (DVS): ca. 2.2%
[2]
  7-day Stability studies: Purity compared to input: Purity similar
[2]; 7 days, 40° C./75% RH
  solid form by XRPD after storage: retained
[2]; 7 days, 80° C.
  solid form by XRPD after storage: predominantly amorphous
[2]; 7 days, ambient conditions
  solid form by XRPD after storage: retained
[2]; all conditions
  7-day Stability studies: solid form: Form 4 retained
[2]; at 80° C., printed 'crystallinity significantly reduced'
  7-day Stability studies: crystallinity: reduced at 80° C.)
[3]
  VT-XRPD: Conv. To Form 8 at: at 40-70 °C
  VT-XRPD: Conversion to amorph. At: amorph. At ≥90 °C
  temperature above which the sample turned amorphous: greater than 90 °C
  temperature range of conversion to crystalline Form 8 Compound 1 mono(hydrogen sulfate): 40-70 °C
[4]
  XRPD: Crystalline

## COc1cc(C(=O)O[C@@H]2CCCOc3cc(cc(OC)c3OC)C(=O)NCCCN3CCCN(CC2)CC3)cc(OC)c1OC.O=S(=O)(O)O.O=S(=O)(O)O [crystalline Form 3 Compound 1 di(hydrogen sulfate)]
[1]
  DVS: solid form conversion: Conversion to P2
  post-DVS sample (XRPD / appearance): conversion to crystalline Form 2 Compound 1 di(hydrogen sulfate) trihydrate
[1]; at 80% RH
  DVS uptake: 7.3% uptake at
[1]; between 0-10% RH, 25° C.
  moisture uptake (DVS): about 5.2%
[1]; between 10-80% RH, 25° C.
  moisture uptake (DVS): ca. 2.1%
[1]; between 40-80% RH, first sorption cycle, 25° C.
  moisture uptake (DVS): ca. 7.1%
[2]
  7-day Stability studies: Purity compared to input: Purity similar
[2]; 7 days, 40° C./75% RH
  solid form by XRPD after storage: Conversion to crystalline Form 2 Compound 1 di(hydrogen sulfate) trihydrate
[2]; 7 days, 80° C.
  solid form by XRPD after storage: mixture of crystalline Form 3 Compound 1 di(hydrogen sulfate) and crystalline Form 9 Compound 1 di(hydrogen sulfate)
[2]; 7 days, ambient conditions
  solid form by XRPD after storage: conversion to crystalline Form 6 Compound 1 di(hydrogen sulfate)
[2]; at 80° C.
  7-day Stability studies: solid form: Form 9 at 80 °C
[2]; at ambient
  7-day Stability studies: solid form: Form 6 at ambient;
[3]
  VT-XRPD: Conv. To Form 9 from: from 50-160 °C
  VT-XRPD: Melt from: Melt from 160 °C
  VT-XRPD: input form retained at: at 25-50 °C
  temperature range in which the form is retained (VT-XRPD): 25-40 °C
[3]; Heating, 50° C., hold 30 min
  VT-XRPD Results: 3 (trace of 9)
[4]
  XRPD: Partially
